What was measured:
[1] = system: high-fat diet-induced obese mice; experiment: Hepatic steatosis in high-fat diet-induced obese mice; format: in vivo, mouse; details: 28 days ip, CBG 25 mg/kg/day; for HFD-induced hepatic steatosis (liver triglyceride levels, fat vacuoles and ballooning in hepatocytes): CBD 10 mg/kg/day, alone or combined, FIGS. 5A, B
Method: (§1) Next, the inventors tested whether the isolated and combined effect of phytocannabinoids has the ability to reverse fatty liver (hepatic steatosis) and improve metabolism in high-fat diet-induced obese mouse. Briefly, six weeks old, male C57Bl/6J mice were fed ad libitum with a high-fat diet (HFD; D12492; 60% of calories from fat, 20% from protein, and 20% from carbohydrates; Research Diets) or a mouse standard diet (STD; NIH no. 31 rodent diet) for 14 weeks. Then, the mice were treated for 28 days with CBD (10 mg/kg/day, ip), CBG (25 mg/kg/day, ip), CBD+CBG (10 mg/kg/day+25 mg/kg/day, ip respectively) or vehicle (EtOH:cremophor:saline; 1:1:18). The mouse groups were labeled as defined here: mice on a STD treated with vehicle (STD-Veh), mice on a HFD treated with vehicle (HFD-Veh), mice on a HFD treated with CBD (HFD-CBD), mice on a HFD treated with CBG (HFD-CBG), and mice on a HFD treated with CBD+CBG (HFD-CBD+CBG).
Hepatic steatosis (Fatty liver) was measured by (i) quantifying the amount of triglycerides and cholesterol in the liver by using a specific lipid extraction method followed by colorimetric chemical analyses using the Cobas C111 Chemistry Analyzer (Roche, Germany), and (ii) evaluating the reversal of fatty liver by histology. Briefly, paraffin-embedded liver sections (5 tiM) were be used to evaluate hepatic morphology (using H & E staining).

[2] = system: high-fat diet-induced obese mice; experiment: Antiobesity effect (fat and lean mass, EchoMRI) in high-fat diet-induced obese mice; format: in vivo, mouse; details: 28 days ip; CBG 25 mg/kg/day; FIG. 9B, C
Method: as §1
Antiobesity effect was assessed by measuring body weight. Total fat and lean masses were determined at the end of the treatment by EchoMRI-100 (Echo Medical Systems LLC, Houston Tex.).

[3] = system: high-fat diet-induced obese mice; experiment: Glucose and insulin homeostasis in high-fat diet-induced obese mice; format: in vivo, mouse; details: 28 days ip, CBG 25 mg/kg/day; for HFD-induced hyperglycemia (fasting blood glucose levels) / glucose tolerance (intraperitoneal glucose tolerance test) / serum insulin levels (hyperinsulinemia): CBD 10 mg/kg/day; for HFD-induced hyperglycemia (fasting blood glucose levels) / glucose tolerance (intraperitoneal glucose tolerance test): alone or combined; for HFD-induced hyperglycemia (fasting blood glucose levels): FIG. 6A; for glucose tolerance (intraperitoneal glucose tolerance test): FIG. 6B, C; for serum insulin levels (hyperinsulinemia): FIG. 7A
Method: as §1
Glucose and insulin homeostasis was assessed by (i) measuring fasting blood glucose (Elite glucometer, Bayer, Germany) and serum insulin (Ultra-Sensitive Mouse Insulin ELISA kit, EMD Millipore, MA) levels, (ii) evaluating Homeostatic Model Assessment for Insulin Resistance (HOMA-IR), and (iii) performing intraperitoneal glucose tolerance test.

[4] = system: high-fat diet-induced obese mice; experiment: Lipid balance (circulating triglycerides and cholesterol) in high-fat diet-induced obese mice; format: in vivo, mouse; details: 28 days ip; for serum triglycerides: CBD 10 mg/kg/day, FIG. 8A
Method: as §1
Lipid balance was assessed by evaluating the levels of low-density lipoprotein (LDL)-cholesterol, total cholesterol and triglycerides by using Cobas C111 Chemistry Analyzer (Roche, Germany).

obese mice = details: cited from earlier work
[5] = system: human hepatoma HepG2 cells; experiment: Oleate:Palmitate-induced lipid accumulation in hepatocytes (Nile-Red); format: cell-based; details: CBD 20 μM; 0.3 mM oleate:palmitate 2:1; 24 hr; FIG. 1
Method: To test whether CBG and/or CBD have the ability to reduce lipid accumulation in hepatocytes, we have utilized an in vitro model of fat accumulation in hepatocytes. Briefly, human hepatoma HepG2 cells were maintained at 37° C. in 5% CO2 in DMEM medium supplemented with 10% FCS, 2 mM 1-glutamine, 1 mM sodium pyruvate, 100 U/mL penicillin and […] streptomycin. Free fatty acids (2:1, molar ratio, oleic and palmitic acids) were mixed with bovine serum albumin (BSA). Cells were incubated with fatty acid-BSA complex in FCS-free culture medium at 0.3 mM final concentration of fatty acid and 1% of BSA. Control cell cultures were incubated with medium containing the vehicle. Compounds were tested in a range of concentrations (as detailed in each figure) in the presence/absence of fatty acids. The synergistic effect between two compounds was also tested once validating their individual effect. After 24 hr of incubation with the compounds, the cells were washed, incubated with 1 μg/mL mixture of Nile-Red/Hoechst solution for 15 mins at 37° C. protected from light. Fluorescence was measured by the Cytation-3 plate reader at ex:488 nm/em:550 for Nile-Red and Hoechst, respectively. Results were normalized to total protein levels of each well, and presented as a change in the accumulation of lipids in comparison with Vehicle-treated group.

mice = details: cited from earlier work
rats on high-fat diets = details: cited from earlier work

For CCCCCc1cc(O)c(C/C=C(\C)CCC=C(C)C)c(O)c1 [CBG, cannabigerol], the “HFD-induced hepatic steatosis (liver triglyceride levels, fat vacuoles and ballooning in hepatocytes)” value [1] was “significantly attenuated”, the liver cholesterol levels ([1]; FIG. 5C) was “trend toward reduction” and the fat mass [2] was “significant reduction”. The lean mass [2] was “increased”, the “HFD-induced hyperglycemia (fasting blood glucose levels)” value [3] was “significantly normalized” and the “glucose tolerance (intraperitoneal glucose tolerance test)” value [3] was “significant improvement”. For the same molecule, the “serum insulin levels (hyperinsulinemia)” value [3] was “trend toward reduction”, the HOMA-IR ([3]; FIG. 7B) was “normalization” and the serum triglycerides ([4]; CBG 25 mg/kg/day) was “Reduction”. For the same molecule, the “total circulating cholesterol levels” value ([4]; CBG 25 mg/kg/day alone or with CBD 10 mg/kg/day, FIG. 8B) was “significantly reduced” and the LDL-Cholesterol levels ([4]; CBG 25 mg/kg/day, FIG. 8C) was “significant reduction”.

For CCCc1cc(O)c2c(c1)OC(C)(C)[C@@H]1CCC(C)=C[C@@H]21 [THCV, Δ^9-tetrahydrocannabivarin], the insulin sensitivity (obese mice) is listed as “improves insulin sensitivity” and the “triglyceride (TG) accumulation within the livers” value (obese mice) is listed as “decreases”.

For C=C(C)[C@@H]1CCC(C)=C[C@H]1c1c(O)cc(CCCCC)cc1O [CBD, cannabidiol, reference compound], the “HFD-induced hepatic steatosis (liver triglyceride levels, fat vacuoles and ballooning in hepatocytes)” value [1] was “significantly attenuated”, the “lipid accumulation in hepatocytes” value [5] was “significantly reduce lipid accumulation” and the “HFD-induced hyperglycemia (fasting blood glucose levels)” value [3] was “significantly normalized”. For the same molecule, the “glucose tolerance (intraperitoneal glucose tolerance test)” value [3] was “significant improvement”, the “serum insulin levels (hyperinsulinemia)” value [3] was “ineffective in reducing hyperinsulinemia” and the serum triglycerides ([4]; CBG 25 mg/kg/day) was “Reduction”. For the same molecule, the “development of alcohol-induced hepatosteatosis” value (mice) was “inhibits” and the weight gain (rats on high-fat diets) was “inhibits weight gain”.
